# Measurements published in patent US20210120789A1, “Genetically Modified Non-Human Animals” (Shanghai RAAS Blood Products Co., Ltd., priority 2019, published 2021).
# Columns and labels:
# [1] = system: factor IX deficient mice (F9−/−); assay: Hemophilia B model, tail transection bleeding time; format: in vivo, mouse; conditions: distal tail transected at 4 mm, injected into an orbital vein 5 min before transection, vs no factor injected
# Procedure: (§1) For hemophilia A model, 8 to 10-week-old mice including WT mice, factor VIII deficient mice (F8−/−) and human protein C knockin and factor VIII deficient double mutant mice (hproC+/+, F8−/−) anesthetized using 80 mg/kg sodium pentobarbital i.p. were placed on their abdomen with the tail immersed in 37° C. saline. The distal tail of mice was transected at 4 mm (severe injury), and the bleeding was arterial and venous. Human factor VIII was injected into an orbital vein 5 min before the tail was transected. Controls were also performed in which no Human Factor VIII was injected. For hemophilia B model, the same procedures were conducted except that factor IX deficient mice (F9−/−), human protein C knockin and factor IX deficient double mutant mice (hproC+/+, F9−/−), and human factor IX were used. Bleeding time was measured following the tail-tip transection and immediate immersion of the tail in 10 ml of saline at 37° C. Bleeding time was set at cessation of blood leakage for at least 1 min. After 15 min, the tail was removed from the saline and the bleeding time measure was ended.
# [2] = system: human protein C knockin and factor IX deficient double mutant mice (hproC+/+, F9−/−); assay: Hemophilia B model, tail transection bleeding time; format: in vivo, mouse; conditions: distal tail transected at 4 mm, injected into an orbital vein 5 min before transection, vs no factor injected
# Procedure: as §1
substance,measurement,setting,value
"human factor IX: human blood clotting factor IX, injected before tail transection in the hemophilia B model",bleeding time,[1],correct the prolonged bleeding time
same,bleeding time,[2],correct the prolonged bleeding time
